Experimental data published in PubChem BioAssay AID2060905 (Molecular Pharmacology Branch, DTP, NCI, 2025).

Tested on: 282377-053-R-J1-PDC complex spheroid viability
Assay: Anticancer human tumor 282377-053-R-J1-PDC patient-derived colon adenocarcinoma cell line growth inhibition [RAS]
Details: for IC50: curve of first compound; for viability, T/C: stronger effect = lower value
Procedure, shortened: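 Agents were tested in combination matrices in half-log decrements from a top concentration at or near clinical Cmax (10 microM if undetermined). Targets were multi-cell spheroids of tumour lines plus HUVEC and MSC stromal cells.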
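Further: spheroids exposed to agents for seven days before readout.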
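Wherever viability, T/C is given: luminescence viability as percent of DMSO vehicle control wells.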

## CC(=O)OC12COC1CC(O)C1(C)C(=O)C(O)C3=C(C)C(OC(=O)C(O)C(NC(=O)OC(C)(C)C)c4ccccc4)CC(O)(C(OC(=O)c4ccccc4)C21)C3(C)C (configuration not stated) + CCn1c(-c2cc(N3CCN(C)CC3)cnc2C(C)OC)c2c3cc(ccc31)-c1csc(n1)CC(NC(=O)C1CC1C)C(=O)N1CCCC(N1)C(=O)OCC(C)(C)C2
Second compound 0.000949 µM
  IC50: < 31.6 nM
Second compound 0.003 µM
  IC50: < 31.6 nM
Second compound 0.00949 µM
  IC50: < 31.6 nM
Second compound 0.03 µM
  IC50: < 31.6 nM
Second compound 0.0949 µM
  IC50: < 31.6 nM
Second compound 0.3 µM
  IC50: < 31.6 nM
Second compound 0.000949 µM, first compound 0.0316 µM
  viability, T/C: 41.2%
Second compound 0.000949 µM, first compound 0.1 µM
  viability, T/C: 48.6%
Second compound 0.000949 µM, first compound 0.316 µM
  viability, T/C: 44.2%
Second compound 0.000949 µM, first compound 1 µM
  viability, T/C: 52%
Second compound 0.000949 µM, first compound 3.16 µM
  viability, T/C: 61%
Second compound 0.000949 µM, first compound 10 µM
  viability, T/C: 97.3%
Second compound 0.003 µM, first compound 0.0316 µM
  viability, T/C: 50.1%
Second compound 0.003 µM, first compound 0.1 µM
  viability, T/C: 38.4%
Second compound 0.003 µM, first compound 0.316 µM
  viability, T/C: 45.5%
Second compound 0.003 µM, first compound 1 µM
  viability, T/C: 55.2%
Second compound 0.003 µM, first compound 3.16 µM
  viability, T/C: 52.2%
Second compound 0.003 µM, first compound 10 µM
  viability, T/C: 83.2%
Second compound 0.00949 µM, first compound 0.0316 µM
  viability, T/C: 50.1%
Second compound 0.00949 µM, first compound 0.1 µM
  viability, T/C: 42.6%
Second compound 0.00949 µM, first compound 0.316 µM
  viability, T/C: 52.5%
Second compound 0.00949 µM, first compound 1 µM
  viability, T/C: 38.7%
Second compound 0.00949 µM, first compound 3.16 µM
  viability, T/C: 72.2%
Second compound 0.00949 µM, first compound 10 µM
  viability, T/C: 91.9%
Second compound 0.03 µM, first compound 0.0316 µM
  viability, T/C: 36.1%
Second compound 0.03 µM, first compound 0.1 µM
  viability, T/C: 46%
Second compound 0.03 µM, first compound 0.316 µM
  viability, T/C: 41.9%
Second compound 0.03 µM, first compound 1 µM
  viability, T/C: 58.2%
Second compound 0.03 µM, first compound 3.16 µM
  viability, T/C: 60.5%
Second compound 0.03 µM, first compound 10 µM
  viability, T/C: 96.2%
Second compound 0.0949 µM, first compound 0.0316 µM
  viability, T/C: 42%
Second compound 0.0949 µM, first compound 0.1 µM
  viability, T/C: 49.4%
Second compound 0.0949 µM, first compound 0.316 µM
  viability, T/C: 46.3%
Second compound 0.0949 µM, first compound 1 µM
  viability, T/C: 40.2%
Second compound 0.0949 µM, first compound 3.16 µM
  viability, T/C: 77.5%
Second compound 0.0949 µM, first compound 10 µM
  viability, T/C: 77.6%
Second compound 0.3 µM, first compound 0.0316 µM
  viability, T/C: 43.1%
Second compound 0.3 µM, first compound 0.1 µM
  viability, T/C: 54.1%
Second compound 0.3 µM, first compound 0.316 µM
  viability, T/C: 47.9%
Second compound 0.3 µM, first compound 1 µM
  viability, T/C: 56.3%
Second compound 0.3 µM, first compound 3.16 µM
  viability, T/C: 79.6%
Second compound 0.3 µM, first compound 10 µM
  viability, T/C: 100%
